Experimental data reported in ChEMBL document CHEMBL1122369, “Autoxidation of the antitumor drug 9-hydroxyellipticine and its derivatives” (1983).

Tested on: L1210
Assay: Growth inhibitory activity against L1210 lymphocytic leukemia cells.
Assay type: functional
Details: Mus musculus, read-out: ID50 (the source's name)

Compound	IC50 [nM]
Cc1c2ccncc2c(C)c2c1[nH]c1c(O)cccc12	5440
Cc1c2ccncc2c(C)c2c1[nH]c1ccccc12 [ELLIPTECINE]	990
Cc1c2cc[n+](C)cc2c(C)c2c1[nH]c1ccc(O)cc12 [ELLIPTINIUM]	50

These reach a lower IC50. Values come first.

IC50 [nM]	Compound
41	Cc1c2c[n+](C)ccc2c(C)c2c1c1cc(O)ccc1n2C
15	Cc1c2ccncc2c(C)c2c1[nH]c1ccc(O)cc12
